Measurements taken from PubChem BioAssay AID330 (DTP/NCI, 2004).
Values joined by “and” are separate entries in the source; they are usually repeats but may differ in a detail not shown here. Identical values can stand only once. Toxic doses and inconclusive results are not listed.

Test system: P388 leukemia ip, CD2F1 mice, survival T/C
Test: NCI In Vivo Anticancer Drug Screen. Data for tumor model P388 Leukemia (intraperitoneal) in CD2F1 (CDF1) mice
Settings: endpoint: median survival time, higher = longer survival
Method in brief: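 Mice carrying the transplanted tumor received test compound or vehicle. Survival was recorded in each group, and the value is the treated-group measurement divided by that of the vehicle-treated control group.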

[1] = dose: 60.0 mg/kg/injection, schedule: Q01DX005 (ip), vehicle: saline with Tween-80
[2] = dose: 120.0 mg/kg/injection, schedule: Q01DX005 (ip), vehicle: saline with Tween-80
[3] = dose: 240.0 mg/kg/injection, schedule: Q01DX005 (ip), vehicle: saline with Tween-80
[4] = dose: 50.0 mg/kg/injection, schedule: Q01DX009 (ip), vehicle: saline with Tween-80
[5] = dose: 100.0 mg/kg/injection, schedule: Q01DX009 (ip), vehicle: saline with Tween-80
[6] = dose: 200.0 mg/kg/injection, schedule: Q01DX009 (ip), vehicle: saline with Tween-80
[7] = dose: 100.0 mg/kg/injection, schedule: Q01DX001 (ip), vehicle: Klucel (hydroxypropylcellulose) (HPC)
[8] = dose: 200.0 mg/kg/injection, schedule: Q01DX001 (ip), vehicle: Klucel (hydroxypropylcellulose) (HPC)
[9] = dose: 400.0 mg/kg/injection, schedule: Q01DX001 (ip), vehicle: Klucel (hydroxypropylcellulose) (HPC)
[10] = dose: 50.0 mg/kg/injection, schedule: Q01DX005 (ip), vehicle: saline with Tween-80

Structure (SMILES): Cc1ccc2c(c1)S(=O)(=O)NC2=O
- T/C [1]: 95 % of control
- T/C [2]: 92 % of control
- T/C [3]: 95 % of control

Structure (SMILES): C/C(=N\NC(=S)N1CCCCCCCCCCCC1)c1ccccn1
- T/C (dose: 6.25 mg/kg/injection, schedule: Q04DX003 (ip), vehicle: Klucel (hydroxypropylcellulose) (HPC)): 101 % of control
- T/C (dose: 12.5 mg/kg/injection, schedule: Q04DX003 (ip), vehicle: Klucel (hydroxypropylcellulose) (HPC)): 100 % of control and 102 % of control and 117 % of control
- T/C (dose: 25.0 mg/kg/injection, schedule: Q04DX003 (ip), vehicle: Klucel (hydroxypropylcellulose) (HPC)): 100 % of control and 113 % of control and 120 % of control
- T/C (dose: 50.0 mg/kg/injection, schedule: Q04DX003 (ip), vehicle: Klucel (hydroxypropylcellulose) (HPC)): 93 % of control

Structure (SMILES): O=NN(c1ccccc1)c1ccc([N+](=O)[O-])cc1
- T/C [4]: 90 % of control
- T/C [5]: 90 % of control

Structure (SMILES): O=C(O)CNC(CO)C(=O)O (centres undefined)
- T/C (dose: 25.0 mg/kg/injection, schedule: Q01DX005 (ip), vehicle: water): 100 % of control
- T/C (dose: 50.0 mg/kg/injection, schedule: Q01DX005 (ip), vehicle: water): 100 % of control
- T/C (dose: 100.0 mg/kg/injection, schedule: Q01DX005 (ip), vehicle: water): 95 % of control
- T/C (dose: 200.0 mg/kg/injection, schedule: Q01DX005 (ip), vehicle: water): 89 % of control

Structure (SMILES): C=C1C(=O)OC2/C=C(/COC(=O)CCCCC)CCC(OCC)C3=CC(OC3=O)C12 (centres undefined)
- T/C (dose: 4.0 mg/kg/injection, schedule: Q01DX009 (ip), vehicle: Klucel (hydroxypropylcellulose) (HPC)): 105 % of control
- T/C (dose: 8.0 mg/kg/injection, schedule: Q01DX009 (ip), vehicle: Klucel (hydroxypropylcellulose) (HPC)): 105 % of control
- T/C (dose: 16.0 mg/kg/injection, schedule: Q01DX009 (ip), vehicle: Klucel (hydroxypropylcellulose) (HPC)): 108 % of control
- T/C (dose: 32.0 mg/kg/injection, schedule: Q01DX009 (ip), vehicle: Klucel (hydroxypropylcellulose) (HPC)): 123 % of control

Structure (SMILES): Clc1ccc(C[n+]2ccccc2)cc1Cl
- T/C (dose: 5.0 mg/kg/injection, schedule: Q04DX003 (ip), vehicle: saline): 120 % of control
- T/C (dose: 10.0 mg/kg/injection, schedule: Q04DX003 (ip), vehicle: saline): 110 % of control
- T/C (dose: 20.0 mg/kg/injection, schedule: Q04DX003 (ip), vehicle: saline): 110 % of control

Structure (SMILES): CCOC(=O)C(NC(C)=O)(C(=O)OCC)c1ccc([N+](=O)[O-])cn1
- T/C (dose: 25.0 mg/kg/injection, schedule: Q01DX009 (ip), vehicle: other): 92 % of control
- T/C (dose: 50.0 mg/kg/injection, schedule: Q01DX009 (ip), vehicle: other): 90 % of control
- T/C (dose: 100.0 mg/kg/injection, schedule: Q01DX009 (ip), vehicle: other): 95 % of control
- T/C (dose: 200.0 mg/kg/injection, schedule: Q01DX009 (ip), vehicle: other): 95 % of control
- T/C (dose: 400.0 mg/kg/injection, schedule: Q01DX009 (ip), vehicle: other): 102 % of control

Structure (SMILES): CC1CC(C)(C)N=C(Cc2ccccc2)O1 (centres undefined)
- T/C [4]: 100 % of control
- T/C [5]: 101 % of control
- T/C [6]: 89 % of control

Structure (SMILES): CCN(CC)CCNc1ccc(C)c2oc3ccc(O)cc3c(=O)c12
- T/C (dose: 12.5 mg/kg/injection, schedule: Q01DX005 (ip), vehicle: distilled water + Tween-80): 106 % of control
- T/C (dose: 25.0 mg/kg/injection, schedule: Q01DX005 (ip), vehicle: distilled water + Tween-80): 106 % of control
- T/C (dose: 50.0 mg/kg/injection, schedule: Q01DX005 (ip), vehicle: distilled water + Tween-80): 117 % of control

Structure (SMILES): COc1cccc2c1C(=O)c1c(O)c3c(c(O)c1C2=O)C[C@@](O)(C(C)O)C[C@@H]3OC1CC(NC(=O)C(F)(F)F)C(O)C(C)O1 (some centres undefined)
- T/C (dose: 1.56 mg/kg/injection, schedule: Q01DX009 (ip), vehicle: water): 118 % of control
- T/C (dose: 6.25 mg/kg/injection, schedule: Q01DX009 (ip), vehicle: water): 150 % of control
- T/C (dose: 12.5 mg/kg/injection, schedule: Q01DX009 (ip), vehicle: water): 156 % of control and 169 % of control
- T/C (dose: 25.0 mg/kg/injection, schedule: Q01DX009 (ip), vehicle: water): 181 % of control and 189 % of control

Structure (SMILES): c1cc2c(cc1C1SCSCS1)OCO2
- T/C (dose: 100.0 mg/kg/injection, schedule: Q01DX009 (ip), vehicle: Klucel (hydroxypropylcellulose) (HPC)): 100 % of control
- T/C (dose: 200.0 mg/kg/injection, schedule: Q01DX009 (ip), vehicle: Klucel (hydroxypropylcellulose) (HPC)): 120 % of control
- T/C (dose: 400.0 mg/kg/injection, schedule: Q01DX009 (ip), vehicle: Klucel (hydroxypropylcellulose) (HPC)): 110 % of control

Structure (SMILES): CCOc1ccc(N=NC2C(=O)N(c3cccc(Cl)c3Cl)C(=S)N(c3ccccc3)C2O)cc1 (centres undefined)
- T/C [7]: 99 % of control
- T/C [8]: 100 % of control
- T/C [9]: 97 % of control

Structure (SMILES): COc1nc(=O)n(C2CCCO2)cc1Br (centres undefined)
- T/C [1]: 96 % of control
- T/C [2]: 102 % of control
- T/C [3]: 100 % of control

Structure (SMILES): FC(F)(F)c1ccc2c3c(c4c(c2n1)OCN(Cc1ccc(Cl)cc1Cl)C4)CN(Cc1ccc(Cl)cc1Cl)CO3
- T/C (dose: 100.0 mg/kg/injection, schedule: Q01DX001 (ip), vehicle: other): 93 % of control
- T/C (dose: 200.0 mg/kg/injection, schedule: Q01DX001 (ip), vehicle: other): 93 % of control
- T/C (dose: 400.0 mg/kg/injection, schedule: Q01DX001 (ip), vehicle: other): 100 % of control

Structure (SMILES): CN1CCC2CC(=O)NC1(C)C2(C)C (centres undefined)
- T/C (dose: 100.0 mg/kg/injection, schedule: Q01DX001 (ip), vehicle: saline): 104 % of control
- T/C (dose: 200.0 mg/kg/injection, schedule: Q01DX001 (ip), vehicle: saline): 106 % of control
- T/C (dose: 400.0 mg/kg/injection, schedule: Q01DX001 (ip), vehicle: saline): 106 % of control

Structure (SMILES): N#C/C(=C1C=C(Br)/C(=N\O)C=C\1Cl)c1cccc2ccccc12
- T/C [4]: 103 % of control
- T/C [5]: 102 % of control
- T/C [6]: 102 % of control
- T/C (dose: 400.0 mg/kg/injection, schedule: Q01DX009 (ip), vehicle: saline with Tween-80): 115 % of control

Structure (SMILES): CCOP(=O)(OCC)Oc1cnn(C)c(=O)c1SCC
- T/C (dose: 0.78 mg/kg/injection, schedule: Q01DX005 (ip), vehicle: saline): 98 % of control

Structure (SMILES): O=C1/C(=C\c2ccc3c(c2)OCO3)SC(=S)N1CCCN1CCOCC1
- T/C [10]: 92 % of control
- T/C (dose: 100.0 mg/kg/injection, schedule: Q01DX005 (ip), vehicle: saline with Tween-80): 90 % of control
- T/C (dose: 200.0 mg/kg/injection, schedule: Q01DX005 (ip), vehicle: saline with Tween-80): 93 % of control

Structure (SMILES): CCOC(=O)Cn1c(O)c(C2=c3cc(Br)ccc3=NC2=O)sc1=O
- T/C [7]: 95 % of control
- T/C [8]: 98 % of control
- T/C [9]: 99 % of control

Structure (SMILES): COc1ccc2c(c1OC)Oc1c(OC)ccc3c1C(C2)N(C)C[C@@H]3O (some centres undefined)
- T/C (dose: 5.75 mg/kg/injection, schedule: Q01DX005 (ip), vehicle: Klucel (hydroxypropylcellulose) (HPC)): 103 % of control
- T/C (dose: 11.5 mg/kg/injection, schedule: Q01DX005 (ip), vehicle: Klucel (hydroxypropylcellulose) (HPC)): 109 % of control
- T/C (dose: 23.0 mg/kg/injection, schedule: Q01DX005 (ip), vehicle: Klucel (hydroxypropylcellulose) (HPC)): 100 % of control
- T/C (dose: 46.0 mg/kg/injection, schedule: Q01DX005 (ip), vehicle: Klucel (hydroxypropylcellulose) (HPC)): 99 % of control

Structure (SMILES): C/C(=N\NC(=S)N1CCCCCC1)c1nccs1
- T/C (dose: 12.5 mg/kg/injection, schedule: Q01DX005 (ip), vehicle: saline with Tween-80): 98 % of control
- T/C (dose: 25.0 mg/kg/injection, schedule: Q01DX005 (ip), vehicle: saline with Tween-80): 100 % of control
- T/C [10]: 102 % of control

Structure (SMILES): NCC(O)c1cccc(O)c1 (centres undefined)
- T/C (dose: 6.25 mg/kg/injection, schedule: Q01DX009 (ip), vehicle: saline): 101 % of control and 92 % of control
- T/C (dose: 12.5 mg/kg/injection, schedule: Q01DX009 (ip), vehicle: saline): 101 % of control and 95 % of control
- T/C (dose: 25.0 mg/kg/injection, schedule: Q01DX009 (ip), vehicle: saline): 100 % of control

Structure (SMILES): CN(N=C1C(N)=NN=C1N)c1ccccc1
- T/C (dose: 50.0 mg/kg/injection, schedule: Q04DX002 (ip), vehicle: saline with Tween-80): 106 % of control
- T/C (dose: 100.0 mg/kg/injection, schedule: Q04DX002 (ip), vehicle: saline with Tween-80): 93 % of control
- T/C (dose: 200.0 mg/kg/injection, schedule: Q04DX002 (ip), vehicle: saline with Tween-80): 100 % of control
